Data published in publication PMC11098465, “A comparative analysis of peptide-delivered antisense antibiotics using diverse nucleotide mimics” (RNA, 2024).

System: Salmonella outer membrane
Experiment: Outer membrane permeabilization (NPN fluorescence)
Type: cell-based, Salmonella enterica serovar Typhimurium strain SL1344
Settings: KFF-ASOs 10 µM, CTAB 10 µM, PMXB 0.4 µM; added after 14 min
Text: Because the negASOs are ineffective in bacterial cells despite their activity in cell-free systems, we investigated if these ASOs affected the ability of the KFF carrier peptide to induce OM permeabilization. Therefore, we used the hydrophobic fluorophore N-phenylnaphthylamine (NPN), a dye that turns fluorescent after binding to hydrophobic regions within cell membranes. This only occurs in cells with a compromised OM ([Ghosh et al. 2016]; [Ellis et al. 2019]). […] However, when conjugated to negASOs, the KFF carrier is unable to permeabilize the OM (Fig. 10). This could potentially be due to electrostatic interactions between the negASOs and the positively charged KFF.
The experiments were performed by modifying previously published protocols ([Ghosh et al. 2016]; [Ellis et al. 2019]; [Zheng et al. 2021]). Salmonella (WT SL1344, JVS-1574) were grown overnight in 4 mL MHB medium at 37°C (with shaking at 220 rpm). Then the culture was diluted 1:100 and grown until OD600 0.5 (∼2 × 10^8 cfu/mL). This culture was harvested and washed two times with 5 mM HEPES and further diluted to OD600 0.2 in 5 mM HEPES supplemented with 5 mM Glucose (pH 7.2). These cells were then incubated with NPN (Sigma) at a final concentration of 10 µM. One hundred and ninety microliters of NPN-treated cells were transferred into 96-well back plates with transparent bottoms and fluorescence (excitation = 350 nm, emission = 420 nm) was recorded for 60 min (reading was performed every minute) using a Synergy H1 plate reader (Biotek). On the 14th minute, 10 µL of the test compounds (10 µM final concentration) was added into the wells. CTAB (Sigma) 10 µM (final concentration) or PMXB (Sigma) (final concentration of 0.4 µM) were used as positive controls, while water was used as negative control. The fluorescence of the wells was monitored using the same settings as above. The plots were created using OrginPro 2023. The experiment was performed twice and Figure 10 is a representative example of two independent experiments.

Compound | Outer membrane permeabilization, NPN fluorescence (in words)
CCCCCCCCCCCCCCCC[N+](C)(C)C.[Br-] [CTAB, reference compound] | cause a rapid increase in fluorescence
Polymyxin B [reference compound] | cause a rapid increase in fluorescence
